Read-outs that look alike come from different tables or passages of the source.
Tests used:
[1] = target: T1, rSmTAChE (Schistosoma mansoni, UniProt A0A3Q0KMM5); experiment: biochemical
[2] = target: T1, rSmTAChE; assay type: biochemical
[3] = target: recombinant human acetylcholinesterase, rHsAChE (Homo sapiens, UniProt P22303); experiment: biochemical
[4] = read-out: qAC50 (IC50), rSmTAChE
[5] = read-out: qAC50 (IC50), rHsAChE
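Wherever Inhibition (%) (Average) is given: mostly 20 µM final but a few compounds at 5 or 10 µM.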
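Wherever Inhibition (%) Replicate A is given: mostly 20 µM final but a few compounds at 5 or 10 µM.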
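Wherever Inhibition (%) Replicate B is given: mostly 20 µM final but a few compounds at 5 or 10 µM.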

T1 sequence (A0A3Q0KMM5 27-661 limits assumed): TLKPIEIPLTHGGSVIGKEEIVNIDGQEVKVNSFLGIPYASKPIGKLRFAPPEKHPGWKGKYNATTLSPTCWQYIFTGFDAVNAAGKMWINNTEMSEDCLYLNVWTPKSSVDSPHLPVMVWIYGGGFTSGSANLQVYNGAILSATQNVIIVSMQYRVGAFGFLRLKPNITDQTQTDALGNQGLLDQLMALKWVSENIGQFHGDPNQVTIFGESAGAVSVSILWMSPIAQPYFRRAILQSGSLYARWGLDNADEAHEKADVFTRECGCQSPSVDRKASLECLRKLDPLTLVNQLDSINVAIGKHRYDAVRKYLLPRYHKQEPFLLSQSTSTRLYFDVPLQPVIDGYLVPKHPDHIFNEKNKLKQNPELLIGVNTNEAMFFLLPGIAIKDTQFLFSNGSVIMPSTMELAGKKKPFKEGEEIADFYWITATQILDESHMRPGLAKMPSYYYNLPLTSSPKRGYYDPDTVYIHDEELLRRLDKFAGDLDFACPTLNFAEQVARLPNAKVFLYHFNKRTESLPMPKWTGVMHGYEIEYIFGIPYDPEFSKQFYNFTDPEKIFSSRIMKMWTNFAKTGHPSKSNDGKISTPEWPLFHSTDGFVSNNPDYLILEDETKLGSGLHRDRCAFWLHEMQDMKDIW
recombinant human acetylcholinesterase, rHsAChE, sequence (P22303 32-614): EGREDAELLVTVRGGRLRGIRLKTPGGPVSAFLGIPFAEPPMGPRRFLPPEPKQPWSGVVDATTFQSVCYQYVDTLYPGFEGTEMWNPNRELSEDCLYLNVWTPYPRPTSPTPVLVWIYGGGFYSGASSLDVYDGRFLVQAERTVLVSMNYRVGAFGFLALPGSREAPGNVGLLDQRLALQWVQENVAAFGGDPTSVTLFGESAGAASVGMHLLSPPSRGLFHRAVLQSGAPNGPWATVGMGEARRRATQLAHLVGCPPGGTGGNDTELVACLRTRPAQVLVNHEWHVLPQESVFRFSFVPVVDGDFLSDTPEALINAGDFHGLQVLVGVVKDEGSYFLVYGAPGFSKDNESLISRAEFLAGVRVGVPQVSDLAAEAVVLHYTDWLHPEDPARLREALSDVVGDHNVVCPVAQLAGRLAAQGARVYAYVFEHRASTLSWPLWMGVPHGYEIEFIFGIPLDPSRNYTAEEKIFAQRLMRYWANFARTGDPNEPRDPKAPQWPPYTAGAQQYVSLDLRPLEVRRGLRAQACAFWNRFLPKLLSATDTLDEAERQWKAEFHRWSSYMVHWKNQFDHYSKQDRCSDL

SMILES	Inhibition (%) (Average) [1]	Inhibition (%) Replicate A [1]	Inhibition (%) Replicate B [1]	Data Mode (curve class), rSmTAChE [2]	IC50 [2, 4]	Data Mode (curve class), rHsAChE [3]	IC50 [3, 5]	rSmTAChE Data Mode [2]	rHsAChE Data Mode [3]	IC50 ([2]; read-out: rSmTAChE qAC50)	inhibition at 20 µM ([1]; read-out: rSmTAChE HTS Inhibition (Ave, %))	SI (Hs/Sm) [2]	IC50 ([3]; Table 2, DOS-A library, Inactive = inactive at the maximum tested concentration (40 µM), read-out: IC50 (µM) rHsAChE)	IC50 ([3]; Table S4, DOS-A (IC50 values; qAC50), read-out: rHsAChE qAC50)	rHsAChE Data Mode ([3]; dose response curve classification, Table S4, DOS-A)
O=C(O)c1ccccc1Nc1ccc(CCc2ccc(Cl)c(Cl)c2)cc1 [BRD-K34657753-001-01-9]	82.51%	83.46%	81.56%	decreasing	12.4 µM	decreasing	8.55 µM								
C[C@H](NC(=O)C(C)(C)Oc1ccc(C(F)(F)F)cn1)[C@@H](Cc1ccc(Cl)cc1)c1cccc(C#N)c1 [BRD-K35169477-001-01-9]	62.68%	60.97%	64.40%	inactive		decreasing (weakly active)	> 13.5 µM								
CCCC(=O)Nc1ccc2c(c1)OC[C@@H](C)N(Cc1cc(-c3ccccc3)on1)C[C@@H](C)[C@H](OC)CN(C)C2=O [BRD-K35965314-001-01-7]	67.01%	68.51%	65.51%					inactive	inactive						
CC(C)n1cnc2c(NCCc3ccc(O)cc3)nc(-c3csc4ccccc34)nc21 [BRD-K36739687-001-03-0]	68.06%	70.28%	65.85%	inactive		inactive									
O=C(C[C@@H]1C[C@@H]2c3cc(NC(=O)NC4CCCC4)ccc3O[C@@H]2[C@H](CO)O1)NCc1ccc(Cl)cc1 [BRD-K38240817-001-01-4]	84.65%	85.52%	83.79%					decreasing (weakly active)	decreasing (weakly active)						
Cc1nc2sccn2c(=O)c1CCN1CCC(=C(c2ccc(F)cc2)c2ccc(F)cc2)CC1 [BRD-K40887525-001-23-5]	80.73%	82.03%	79.42%	decreasing (weakly active)	> 19.5 µM	decreasing	10.9 µM								
CCOC(=O)C1=C(C)NC(C)=C(C(=O)OCC)C1c1ccccc1/C=C/C(=O)OC(C)(C)C [BRD-K43586850-001-02-9]	95.79%	92.71%	98.87%	inactive		inactive									
COCCOc1ccc2c(c1)ncn2-c1ccc2cccc(N3CCC(N)CC3)c2n1 [BRD-K43621685-001-03-3]	79.32%	80.31%	78.32%	decreasing (weakly active)	> 38 µM	decreasing	20.7 µM								
CC#C[C@@H](CC(=O)O)c1ccc(OCc2cccc(-c3ccc(C(F)(F)F)cc3)c2)cc1 [BRD-K43802723-340-01-9]	79.76%	80.42%	79.10%	decreasing	13.4 µM	decreasing	15.4 µM								
O=C(C[C@@H]1C=C[C@@H](NC(=O)c2ccncc2)[C@H](CO)O1)Nc1ccc(-c2ccccc2)cc1 [BRD-K45095313-001-01-2]	61.11%	60.65%	61.57%					inactive	inactive						
COc1ccc(NC(=O)Nc2ccc3c(c2)[C@H]2C[C@@H](CC(=O)NCc4ccccn4)O[C@@H](CO)[C@H]2O3)cc1 [BRD-K46319090-001-01-4]	89.33%	88.58%	90.08%					decreasing	inactive	37.8 µM					
C#C[C@]1(OC(C)=O)CC[C@H]2[C@@H]3CCC4=C[C@@H](OC(C)=O)CC[C@@H]4[C@H]3CC[C@@]21C [BRD-K46331928-001-05-8]	94.91%	95.51%	94.31%	decreasing (weakly active)	> 38 µM	inactive									
CCCCCCCCCCCCCCCC[N+](C)(C)C [BRD-K47079459-004-04-6]	64.20%	65.92%	62.47%	decreasing	17 µM	decreasing	10.3 µM								
CC(C)(C)[S+]([O-])N1Cc2cc(C(=O)NCCN3CCCC3)nc(-c3cccc(-c4ccc(C#N)cc4)c3)c2C1CCO (centres unmarked) [BRD-K49441594-001-01-4]								decreasing			61.8%	2.35	35.5 µM	35.5 µM	decreasing
O=C(C[C@H]1C[C@H]2c3cc(NC(=O)Nc4ccc(C(F)(F)F)cc4)ccc3O[C@H]2[C@H](CO)O1)NC1CCCCC1 [BRD-K50094564-001-01-3]	69.15%	68.27%	70.03%					decreasing (weakly active)	inactive						
N#Cc1ccc(N2NC3=C(CCc4cc(C(=O)O)ccc43)[C@@H]2C2CCCC2)cc1Cl [BRD-K51041191-001-01-4]	66.80%	70.13%	63.46%	decreasing (weakly active)	> 38 µM	decreasing (weakly active)	> 38 µM								
O=C1[C@@H]2[C@H]3CC[C@H](C3)[C@@H]2C(=O)N1C[C@@H]1CCCC[C@H]1CN1CCN(c2nsc3ccccc23)CC1 [BRD-K51143828-003-03-1]	77.24%	79.39%	75.09%	decreasing (weakly active)	> 38 µM	inactive									
CC(C)Oc1ccc(-c2nn([C@@H](C)c3oc4ccc(F)cc4c(=O)c3-c3cccc(F)c3)c3ncnc(N)c23)cc1F [BRD-K52579889-001-01-9]	65.60%	66.50%	64.70%	decreasing (weakly active)	> 38 µM	inactive									
CCc1nc(-c2cccc(C)c2)c(-c2ccnc(NC(=O)c3ccccc3)c2)s1 [BRD-K52751261-001-08-7]	70.66%	75.76%	65.56%	inactive		decreasing (weakly active)	> 6.8 µM								
COc1ccc(C#Cc2ccc3c(c2)O[C@H](CN(C)S(=O)(=O)c2ccccc2F)[C@@H](C)CN([C@H](C)CO)S3(=O)=O)cc1 [BRD-K53241408-001-01-7]	74.07%	75.51%	72.63%					inactive	inactive						
